Molecular target: T1, ΔF508-CFTR (Homo sapiens, UniProt P13569, DEL508-508)
T1 construct: expressed in transfected cells
Test: ΔF508-CFTR correction, membrane potential optical (FRET/VIPR) assay
Format: cell-based
Conditions: NIH3T3 mouse fibroblasts stably expressing ΔF508-CFTR; for Emax: read-out: % Efficacy
Text: Assays for Detecting and Measuring ΔF508-CFTR Correction Properties of Compounds
Membrane potential optical methods for assaying ΔF508-CFTR modulation properties of compounds
The optical membrane potential assay utilized voltage-sensitive FRET sensors described by Gonzalez and Tsien (See Gonzalez, J. E. and R. Y. Tsien (1995) “Voltage sensing by fluorescence resonance energy transfer in single cells” Biophys J 69(4): 1272-80, and Gonzalez, J. E. and R. Y. Tsien (1997) “Improved indicators of cell membrane potential that use fluorescence resonance energy transfer” Chem Biol 4(4): 269-77) in combination with instrumentation for measuring fluorescence changes such as the Voltage/Ion Probe Reader (VIPR) (See Gonzalez, J. E., K. Oades, et al. (1999) “Cell-based assays and instrumentation for screening ion-channel targets” Drug Discov Today 4(9): 431-439).
These voltage sensitive assays are based on the change in fluorescence resonant energy transfer (FRET) between the membrane-soluble, voltage-sensitive dye, DiSBAC2(3), and a fluorescent phospholipid, CC2-DMPE, which is attached to the outer leaflet of the plasma membrane and acts as a FRET donor. Changes in membrane potential (Vm) cause the negatively charged DiSBAC2(3) to redistribute across the plasma membrane and the amount of energy transfer from CC2-DMPE changes accordingly. The changes in fluorescence emission were monitored using VIPR™ II, which is an integrated liquid handler and fluorescent detector designed to conduct cell-based screens in 96- or 384-well microtiter plates.
1. Identification of Correction Compounds
To identify small molecules that correct the trafficking defect associated with ΔF508-CFTR; a single-addition HTS assay format was developed. The cells were incubated in serum-free medium for 16 hrs at 37° C. in the presence or absence (negative control) of test compound. As a positive control, cells plated in 384-well plates were incubated for 16 hrs at 27° C. to “temperature-correct” ΔF508-CFTR. The cells were subsequently rinsed 3× with Krebs Ringers solution and loaded with the voltage-sensitive dyes. To activate ΔF508-CFTR, 10 μM forskolin and the CFTR potentiator, genistein (20 μM), were added along with Cl^−-free medium to each well. The addition of Cl^−-free medium promoted Cl^− efflux in response to ΔF508-CFTR activation and the resulting membrane depolarization was optically monitored using the FRET-based voltage-sensor dyes.
NIH3T3 mouse fibroblasts stably expressing ΔF508-CFTR are used for optical measurements of membrane potential. The cells are maintained at 37° C. in 5% CO2 and 90% humidity in Dulbecco's modified Eagle's medium supplemented with 2 mM glutamine, 10% fetal bovine serum, 1×NEAA, β-ME, 1× pen/strep, and 25 mM HEPES in 175 cm^2 culture flasks. For all optical assays, the cells were seeded at 30,000/well in 384-well matrigel-coated plates and cultured for 2 hrs at 37° C. before culturing at 27° C. for 24 hrs for the potentiator assay. For the correction assays, the cells are cultured at 27° C. or 37° C. with and without compounds for 16-24 hours Electrophysiological Assays for assaying ΔF508-CFTR modulation properties of compounds

T1 sequence (P13569 with tags, fused parts or gaps DEL508-508): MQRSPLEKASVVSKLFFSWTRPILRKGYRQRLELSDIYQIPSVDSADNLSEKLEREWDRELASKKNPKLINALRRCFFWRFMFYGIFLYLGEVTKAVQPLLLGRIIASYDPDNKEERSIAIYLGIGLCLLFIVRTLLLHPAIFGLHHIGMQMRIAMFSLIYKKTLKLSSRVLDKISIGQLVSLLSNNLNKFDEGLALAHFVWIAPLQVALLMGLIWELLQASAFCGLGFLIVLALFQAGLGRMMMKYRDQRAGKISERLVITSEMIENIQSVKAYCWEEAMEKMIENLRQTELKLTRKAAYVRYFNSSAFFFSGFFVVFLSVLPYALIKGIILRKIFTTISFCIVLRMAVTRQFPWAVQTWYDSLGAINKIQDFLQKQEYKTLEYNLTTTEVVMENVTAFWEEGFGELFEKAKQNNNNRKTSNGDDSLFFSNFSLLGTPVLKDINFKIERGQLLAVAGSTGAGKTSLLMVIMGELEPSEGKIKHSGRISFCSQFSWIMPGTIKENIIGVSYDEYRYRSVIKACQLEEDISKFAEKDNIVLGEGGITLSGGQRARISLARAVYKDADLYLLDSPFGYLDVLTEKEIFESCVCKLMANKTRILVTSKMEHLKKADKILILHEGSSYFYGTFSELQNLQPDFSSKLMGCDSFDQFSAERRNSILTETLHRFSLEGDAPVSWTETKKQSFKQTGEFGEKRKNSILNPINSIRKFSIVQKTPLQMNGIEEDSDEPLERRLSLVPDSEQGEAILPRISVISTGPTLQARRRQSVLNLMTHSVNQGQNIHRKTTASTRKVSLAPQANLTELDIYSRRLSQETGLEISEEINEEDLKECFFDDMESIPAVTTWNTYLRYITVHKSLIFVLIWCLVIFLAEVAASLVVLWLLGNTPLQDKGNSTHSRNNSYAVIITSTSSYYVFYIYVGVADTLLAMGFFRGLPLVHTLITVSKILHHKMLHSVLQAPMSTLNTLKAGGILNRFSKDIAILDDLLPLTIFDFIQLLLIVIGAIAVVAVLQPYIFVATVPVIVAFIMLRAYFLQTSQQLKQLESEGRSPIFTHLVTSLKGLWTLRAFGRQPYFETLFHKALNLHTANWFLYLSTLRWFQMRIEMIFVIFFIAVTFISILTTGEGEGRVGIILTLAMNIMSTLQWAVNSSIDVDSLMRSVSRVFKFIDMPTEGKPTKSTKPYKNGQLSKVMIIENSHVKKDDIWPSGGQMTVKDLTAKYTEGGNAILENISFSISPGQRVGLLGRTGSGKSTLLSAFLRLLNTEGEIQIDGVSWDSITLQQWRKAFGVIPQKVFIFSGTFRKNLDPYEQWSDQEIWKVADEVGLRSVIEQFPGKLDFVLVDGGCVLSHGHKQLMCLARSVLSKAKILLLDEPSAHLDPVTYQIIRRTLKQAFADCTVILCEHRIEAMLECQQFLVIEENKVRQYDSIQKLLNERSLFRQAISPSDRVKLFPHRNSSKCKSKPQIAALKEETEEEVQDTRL

Row | Structure (SMILES) | EC50 [nM] | Emax [%]
1 | Cc1cc(NC(=O)C2(c3ccc4c(c3)OC(F)(F)O4)CC2)nc(-c2ccc[nH]c2=O)c1 [Compound 17] | < 2000 | > 100
2 | COc1ncc(-c2nc(NC(=O)C3(c4ccc5c(c4)OC(F)(F)O5)CC3)ccc2C)cc1N [Compound 9] | < 2000 | > 100
3 | Cc1cc(NC(=O)C2(c3ccc4c(c3)OC(F)(F)O4)CC2)nc(-c2cc[nH]c(=O)c2)c1C [Compound 67] | < 2000 | > 100
4 | COc1ccc(-c2cc(C)cc(NC(=O)C3(c4ccc5c(c4)OC(F)(F)O5)CC3)n2)cn1 [Compound 38] | < 2000 | > 100
5 | Cc1ccc(NC(=O)C2(c3ccc4c(c3)OC(F)(F)O4)CC2)nc1-c1ccc[nH]c1=O [Compound 46] | < 2000 | 50 to 100
6 | COc1cc(-c2nc(NC(=O)C3(c4ccc5c(c4)OC(F)(F)O5)CC3)ccc2C)ccn1 [Compound 11] | < 2000 | > 100
7 | COc1ncc(-c2nc(NC(=O)C3(c4ccc5c(c4)OC(F)(F)O5)CC3)ccc2C)cc1NC(C)=O [Compound 33] | < 2000 | > 100
8 | Cc1cc(NC(=O)C2(c3ccc4c(c3)OC(F)(F)O4)CC2)nc(-c2ccc(=O)[nH]c2)c1 [Compound 27] | < 2000 | > 100
9 | COc1cccc(-c2nc(NC(=O)C3(c4ccc5c(c4)OC(F)(F)O5)CC3)ccc2C)n1 [Compound 35] | < 2000 | 50 to 100
10 | COc1ccc(C2(C(=O)Nc3ccc(C)c(-c4ccc[nH]c4=O)n3)CC2)cc1 [Compound 10] | < 2000 | 50 to 100
11 | COc1ncc(-c2nc(NC(=O)C3(c4ccc5c(c4)OC(F)(F)O5)CC3)ccc2C)cc1F [Compound 43] | < 2000 | > 100
12 | CNC(=O)c1cc(-c2nc(NC(=O)C3(c4ccc5c(c4)OC(F)(F)O5)CC3)ccc2C)c[nH]c1=O [Compound 32] | 2000 to 5000 | 50 to 100
13 | Cc1cc(NC(=O)C2(c3ccc4c(c3)CCO4)CC2)nc(-c2ccc[nH]c2=O)c1 [Compound 69] | < 2000 | 50 to 100
14 | Cc1ccc(NC(=O)C2(c3ccc4c(c3)OC(F)(F)O4)CC2)nc1-c1cccc(=O)[nH]1 [Compound 50] | < 2000 | 50 to 100
15 | Cc1ccc(NC(=O)C2(c3ccc4c(c3)OC(F)(F)O4)CC2)nc1-c1cc[nH]c(=O)c1 [Compound 44] | < 2000 | 50 to 100
16 | Cc1ccc(NC(=O)C2(c3ccc4c(c3)OC(F)(F)O4)CC2)nc1-c1ccn(CC(=O)O)c(=O)c1 [Compound 47] | < 2000 | < 50
17 | COc1cc(C)c(-c2nc(NC(=O)C3(c4ccc5c(c4)OC(F)(F)O5)CC3)ccc2C)cn1 [Compound 18] | < 2000 | > 100
18 | CCc1ccc(NC(=O)C2(c3ccc4c(c3)OC(F)(F)O4)CC2)nc1-c1ccc(OC)nc1 [Compound 30] | < 2000 | 50 to 100
19 | COc1ncc(C)cc1-c1nc(NC(=O)C2(c3ccc4c(c3)OC(F)(F)O4)CC2)ccc1C [Compound 8] | < 2000 | 50 to 100
20 | O=C(Nc1cccc(-c2ccc[nH]c2=O)n1)C1(c2ccc3c(c2)OC(F)(F)O3)CC1 [Compound 51] | < 2000 | > 100
21 | Cc1ccc(NC(=O)C2(c3ccc4c(c3)OC(F)(F)O4)CC2)nc1-c1ccc(=O)[nH]c1 [Compound 12] | < 2000 | 50 to 100
22 | Cc1ccc(NC(=O)C2(c3ccc4c(c3)OCO4)CC2)nc1-c1ccc(=O)[nH]c1 [Compound 49] | < 2000 | 50 to 100
23 | Cc1cc(NC(=O)C2(c3ccc4c(c3)CCO4)CC2)nc(-c2ccc(=O)[nH]c2)c1 [Compound 68] | < 2000 | 50 to 100
24 | CCc1ccc(NC(=O)C2(c3ccc4c(c3)OC(F)(F)O4)CC2)nc1-c1ccc(=O)[nH]c1 [Compound 5] | < 2000 | 50 to 100
25 | Cc1ccc(NC(=O)C2(c3ccc4c(c3)OC(F)(F)O4)CC2)nc1-c1ccc(=O)n(CCO)c1 [Compound 20] | < 2000 | > 100

Results, then the compound that gave them:

Row | EC50 [nM] | Emax [%] | Structure (SMILES)
26 | < 2000 | 50 to 100 | Cc1ccc(NC(=O)C2(c3ccc4c(c3)OC(F)(F)O4)CC2)nc1-c1ccc(=O)n(CC#N)c1 [Compound 97]
27 | < 2000 | 50 to 100 | Cc1ccc(NC(=O)C2(c3ccc4c(c3)CCO4)CC2)nc1-c1ccc[nH]c1=O [Compound 84]
28 | < 2000 | 50 to 100 | COc1ncc(-c2nc(NC(=O)C3(c4ccc5c(c4)OC(F)(F)O5)CC3)cc(C)c2C)cc1C [Compound 104]
29 | < 2000 | > 100 | Cc1ccc(NC(=O)C2(c3ccc4c(c3)OCC4)CC2)nc1-c1ccc(=O)[nH]c1 [Compound 99]
30 | < 2000 | > 100 | Cc1ccc(NC(=O)C2(c3ccc4c(c3)OC(F)(F)O4)CC2)nc1-c1cc(Cl)c[nH]c1=O [Compound 85]
31 | < 2000 | > 100 | COc1cc(-c2nc(NC(=O)C3(c4ccc5c(c4)OC(F)(F)O5)CC3)ccc2C)cnc1OC [Compound 72]
32 | < 2000 | > 100 | COc1ncc(-c2nc(NC(=O)C3(c4ccc5c(c4)OC(F)(F)O5)CC3)ccc2C)cc1Cl [Compound 71]
33 | < 2000 | > 100 | Cc1cc(NC(=O)C2(c3ccc4c(c3)OC(F)(F)O4)CC2)nc(-c2c[nH]c(=O)cc2C)c1 [Compound 113]
34 | 2000 to 5000 | < 50 | Cc1ccc(NC(=O)C2(c3ccc4c(c3)OC(F)(F)O4)CC2)nc1-c1ccc(=O)n(CC(=O)NC#N)c1 [Compound 74]
35 | < 2000 | 50 to 100 | Cc1cc(NC(=O)C2(c3ccc4c(c3)CCO4)CC2)nc(-c2ccc(=O)[nH]c2)c1C [Compound 112]
36 | < 2000 | 50 to 100 | Cc1ccc(NC(=O)C2(c3ccc4c(c3)CCO4)CC2)nc1-c1c[nH]c(=O)c(C)c1 [Compound 76]
37 | < 2000 | > 100 | Cc1cc(NC(=O)C2(c3ccc4c(c3)OC(F)(F)O4)CC2)nc(-c2c[nH]c(=O)c(C)c2)c1 [Compound 107]
38 | < 2000 | > 100 | Cc1ccc(NC(=O)C2(c3ccc4c(c3)OC(F)(F)O4)CC2)nc1-c1cc(F)c[nH]c1=O [Compound 82]
39 | < 2000 | > 100 | Cc1cc(NC(=O)C2(c3ccc4c(c3)OC(F)(F)O4)CC2)nc(-c2c[nH]c(=O)c(C)c2)c1C [Compound 111]
40 | < 2000 | > 100 | Cc1ccc(NC(=O)C2(c3ccc4c(c3)OC(F)(F)O4)CC2)nc1-c1ccc(=O)n(CCS(C)(=O)=O)c1 [Compound 95]
41 | < 2000 | 50 to 100 | COC(=O)Cn1cc(-c2nc(NC(=O)C3(c4ccc5c(c4)OC(F)(F)O5)CC3)ccc2C)cc(C#N)c1=O [Compound 110]
42 | < 2000 | > 100 | COc1ncc(C)cc1-c1nc(NC(=O)C2(c3ccc4c(c3)OC(F)(F)O4)CC2)cc(C)c1C [Compound 88]
43 | < 2000 | 50 to 100 | Cc1cc(NC(=O)C2(c3ccc4c(c3)CCO4)CC2)nc(-c2ccc[nH]c2=O)c1C [Compound 114]
44 | < 2000 | > 100 | Cc1ccc(NC(=O)C2(c3ccc4c(c3)OC(F)(F)O4)CC2)nc1-c1cc[nH]c(=O)c1Cl [Compound 86]
45 | < 2000 | 50 to 100 | Cc1ccc(NC(=O)C2(c3ccc4c(c3)CCO4)CC2)nc1-c1cc[nH]c(=O)c1 [Compound 80]

From patent publication US8969386B2, “Modulators of CFTR” (Vertex Pharmaceuticals Incorporated, priority 2007, dated 2015)
